In patent publication US10253319B2, “miRNA modulators of thermogenesis” (AptamiR Therapeutics, Inc., priority 2012, dated 2019):

System: UCP3
Assay: UCP3 mRNA expression change in pre-adipocytes, RNA-Seq (Table 14)
Format: cell-based, human
Conditions: 12 days, 100 nM rosiglitazone or 25 nM miRNA analog
Procedure: In order to assess the effect of miRNA analogs on human pre-adipocytes differentiation into mature adipocytes, human subcutaneous pre-adipocytes (SuperLot 0048 from 8 female donors, ZenBio, NC) were plated on Day 0 into 96-well plates and allowed to attach overnight in preadipocyte medium (DMEM/Ham's F-12 (1:1, v/v), HEPES buffer, Fetal bovine serum and Antibiotics). The next day (Day 1), the medium was removed and replaced with differentiation medium (DMEM/Ham's F-12 (1:1, v/v), 100 μM Ascorbic Acid, 0.85 μM insulin, 20 nM sodium selenite, 0.2 nM, triiodothryonine, 1 μM dexamethasone, 100 μM isobutyl-methylxanthine, 100 nM Rosiglitazone and Antibiotics. The cells were allowed to incubate for 2 days at 37°, 5% CO2. After 2 days (Day 3), the medium was removed and replaced with fresh maintenance medium (DMEM/Ham's F-12 (1:1, v/v), 100 μM Ascorbic Acid, 0.85 μM insulin, 20 nM sodium selenite, 0.2 nM triiodothryonine, and Antibiotics). On Day 3, the cells were transfected with miRNA analogs (Dharmacon specific miRIDIAN Mimics and Hairpin Inhibitors) using the transfecting agent Dharmafect1. All treatments were in triplicate. […]
Changes in mRNA expression of UCP1, 2 and 3 were also measured in the presence of rosiglitazone or miRNA analogs, as shown below in Table 14.

**Q.** For CN(CCOc1ccc(CC2SC(=O)NC2=O)cc1)c1ccccn1 (stereo not shown) [rosiglitazone], which “mRNA Expression changes (log ratios) UCP3” value is on record?
**A.** Its value is 0.26 log ratios.
